{"source": "patent US20130274127A1", "about": "“GENE EXPRESSION MARKERS FOR PREDICTION OF RESPONSE TO PHOSPHOINOSITIDE 3-KINASE INHIBITORS” (GENOMIC HEALTH, INC., priority 2012, published 2013)", "key": {"[1]": {"test_system": "NCI-H522", "experiment": "NCI-60 in vitro drug sensitivity testing (SRB)", "type": "cell-based", "settings": "Homo sapiens, NCI-H522, read-out: GDC-0941 GI50", "text": "(§1) Cell lines used in this study were obtained from the National Cancer Institute Developmental Therapeutics program (NCI DTP) and were maintained in RPMI 1640 media (Invitrogen, Grand Island, N.Y.) containing 10% Fetal Bovine Serum (ATCC, Manassas, Va.). Cell lines were used within six months of receipt from the NCI DTP, abrogating the need for reauthentication.\n(§2) 14, 2010 and Aug. 9, 2010."}, "[2]": {"test_system": "NCI/ADR-RES", "experiment": "NCI-60 in vitro drug sensitivity testing (SRB)", "type": "cell-based", "settings": "Homo sapiens, read-out: GDC-0941 GI50", "text": "as §1, §2"}, "[3]": {"test_system": "OVCAR-3", "experiment": "NCI-60 in vitro drug sensitivity testing (SRB)", "type": "cell-based", "settings": "Homo sapiens, OVCAR-3, read-out: GDC-0941 GI50", "text": "as §1, §2"}, "[4]": {"test_system": "OVCAR-5", "experiment": "NCI-60 in vitro drug sensitivity testing (SRB)", "type": "cell-based", "settings": "Homo sapiens, OVCAR-5, read-out: GDC-0941 GI50", "text": "as §1, §2"}, "[5]": {"test_system": "OVCAR-8", "experiment": "NCI-60 in vitro drug sensitivity testing (SRB)", "type": "cell-based", "settings": "Homo sapiens, OVCAR-8, read-out: GDC-0941 GI50", "text": "as §1, §2"}, "[6]": {"test_system": "PC-3", "experiment": "NCI-60 in vitro drug sensitivity testing (SRB)", "type": "cell-based", "settings": "Homo sapiens, PC-3, read-out: GDC-0941 GI50", "text": "as §1, §2"}, "[7]": {"test_system": "RPMI-8226", "experiment": "NCI-60 in vitro drug sensitivity testing (SRB)", "type": "cell-based", "settings": "Homo sapiens, RPMI-8226, read-out: GDC-0941 GI50", "text": "as §1, §2"}, "[8]": {"test_system": "RXF 393", "experiment": "NCI-60 in vitro drug sensitivity testing (SRB)", "type": "cell-based", "settings": "Homo sapiens, RXF 393, read-out: GDC-0941 GI50", "text": "as §1, §2"}, "[9]": {"test_system": "SF-268", "experiment": "NCI-60 in vitro drug sensitivity testing (SRB)", "type": "cell-based", "settings": "Homo sapiens, SF-268, read-out: GDC-0941 GI50", "text": "as §1, §2"}, "[10]": {"test_system": "SF-295", "experiment": "NCI-60 in vitro drug sensitivity testing (SRB)", "type": "cell-based", "settings": "Homo sapiens, SF-295, read-out: GDC-0941 GI50", "text": "as §1, §2"}, "[11]": {"test_system": "SF-539", "experiment": "NCI-60 in vitro drug sensitivity testing (SRB)", "type": "cell-based", "settings": "Homo sapiens, SF-539, read-out: GDC-0941 GI50", "text": "as §1, §2"}, "[12]": {"test_system": "SK-MEL-28", "experiment": "NCI-60 in vitro drug sensitivity testing (SRB)", "type": "cell-based", "settings": "Homo sapiens, SK-MEL-28, read-out: GDC-0941 GI50", "text": "as §1, §2"}, "[13]": {"test_system": "SK-MEL-2", "experiment": "NCI-60 in vitro drug sensitivity testing (SRB)", "type": "cell-based", "settings": "Homo sapiens, SK-MEL-2, read-out: GDC-0941 GI50", "text": "as §1, §2"}, "[14]": {"test_system": "SK-MEL-5", "experiment": "NCI-60 in vitro drug sensitivity testing (SRB)", "type": "cell-based", "settings": "Homo sapiens, SK-MEL-5, read-out: GDC-0941 GI50", "text": "as §1, §2"}, "[15]": {"test_system": "SK-OV-3", "experiment": "NCI-60 in vitro drug sensitivity testing (SRB)", "type": "cell-based", "settings": "Homo sapiens, SK-OV-3, read-out: GDC-0941 GI50", "text": "as §1, §2"}, "[16]": {"test_system": "SN12C", "experiment": "NCI-60 in vitro drug sensitivity testing (SRB)", "type": "cell-based", "settings": "Homo sapiens, read-out: GDC-0941 GI50", "text": "as §1, §2"}, "[17]": {"test_system": "SNB-19", "experiment": "NCI-60 in vitro drug sensitivity testing (SRB)", "type": "cell-based", "settings": "Homo sapiens, SNB-19, read-out: GDC-0941 GI50", "text": "as §1, §2"}, "[18]": {"test_system": "SNB-75", "experiment": "NCI-60 in vitro drug sensitivity testing (SRB)", "type": "cell-based", "settings": "Homo sapiens, SNB-75, read-out: GDC-0941 GI50", "text": "as §1, §2"}, "[19]": {"test_system": "SR", "experiment": "NCI-60 in vitro drug sensitivity testing (SRB)", "type": "cell-based", "settings": "Homo sapiens, read-out: GDC-0941 GI50", "text": "as §1, §2"}, "[20]": {"test_system": "SW-620", "experiment": "NCI-60 in vitro drug sensitivity testing (SRB)", "type": "cell-based", "settings": "Homo sapiens, SW-620, read-out: GDC-0941 GI50", "text": "as §1, §2"}, "[21]": {"test_system": "T-47D", "experiment": "NCI-60 in vitro drug sensitivity testing (SRB)", "type": "cell-based", "settings": "Homo sapiens, T47D, read-out: GDC-0941 GI50", "text": "as §1, §2"}, "[22]": {"test_system": "TK-10", "experiment": "NCI-60 in vitro drug sensitivity testing (SRB)", "type": "cell-based", "settings": "Homo sapiens, TK-10, read-out: GDC-0941 GI50", "text": "as §1, §2"}, "[23]": {"test_system": "U251", "experiment": "NCI-60 in vitro drug sensitivity testing (SRB)", "type": "cell-based", "settings": "Homo sapiens, U-251, read-out: GDC-0941 GI50", "text": "as §1, §2"}, "[24]": {"test_system": "UACC-257", "experiment": "NCI-60 in vitro drug sensitivity testing (SRB)", "type": "cell-based", "settings": "Homo sapiens, UACC-257, read-out: GDC-0941 GI50", "text": "as §1, §2"}, "[25]": {"test_system": "UACC-62", "experiment": "NCI-60 in vitro drug sensitivity testing (SRB)", "type": "cell-based", "settings": "Homo sapiens, UACC-62, read-out: GDC-0941 GI50", "text": "as §1, §2"}, "[26]": {"test_system": "UO-31", "experiment": "NCI-60 in vitro drug sensitivity testing (SRB)", "type": "cell-based", "settings": "Homo sapiens, UO-31, read-out: GDC-0941 GI50", "text": "as §1, §2"}, "[27]": {"test_system": "MCF7", "experiment": "NCI-60 in vitro drug sensitivity testing (SRB)", "type": "cell-based", "settings": "Homo sapiens, MCF7, read-out: GDC-0941 GI50", "text": "as §1"}, "[28]": {"test_system": "MDA-MB-231", "experiment": "NCI-60 in vitro drug sensitivity testing (SRB)", "type": "cell-based", "settings": "Homo sapiens, MDA-MB-231, read-out: GDC-0941 GI50", "text": "as §1"}, "[29]": {"test_system": "OVCAR-4", "experiment": "NCI-60 in vitro drug sensitivity testing (SRB)", "type": "cell-based", "settings": "Homo sapiens, OVCAR-4, read-out: GDC-0941 GI50", "text": "as §1"}, "[30]": {"test_system": "NCI-60 tumor cell line collection", "experiment": "NCI-60 in vitro drug sensitivity testing, whole panel", "type": "cell-based, human", "settings": "for GI50: Homo sapiens, all 60 NCI-60 cell lines", "text": "The NCI-60 tumor cell line collection is a panel of 60 diverse human cancer cell lines.\nas §1, §2"}}, "note": "Read-outs that look alike come from different tables or passages of the source."}
{"smiles": "CS(=O)(=O)N1CCN(Cc2cc3nc(-c4cccc5[nH]ncc45)nc(N4CCOCC4)c3s2)CC1", "note": "[GDC-0941]", "values": [{"measurement": "GI50", "setting": "[1]", "result": 372, "unit": "nM"}, {"measurement": "GI50", "setting": "[2]", "result": 2040, "unit": "nM"}, {"measurement": "GI50", "setting": "[3]", "result": 126, "unit": "nM"}, {"measurement": "GI50", "setting": "[4]", "result": 117, "unit": "nM"}, {"measurement": "GI50", "setting": "[5]", "result": 646, "unit": "nM"}, {"measurement": "GI50", "setting": "[6]", "result": 138, "unit": "nM"}, {"measurement": "GI50", "setting": "[7]", "result": 3470, "unit": "nM"}, {"measurement": "GI50", "setting": "[8]", "result": 251, "unit": "nM"}, {"measurement": "GI50", "setting": "[9]", "result": 741, "unit": "nM"}, {"measurement": "GI50", "setting": "[10]", "result": 110, "unit": "nM"}, {"measurement": "GI50", "setting": "[11]", "result": 251, "unit": "nM"}, {"measurement": "GI50", "setting": "[12]", "result": 617, "unit": "nM"}, {"measurement": "GI50", "setting": "[13]", "result": 759, "unit": "nM"}, {"measurement": "GI50", "setting": "[14]", "result": 1290, "unit": "nM"}, {"measurement": "GI50", "setting": "[15]", "result": 83, "unit": "nM"}, {"measurement": "GI50", "setting": "[16]", "result": 229, "unit": "nM"}, {"measurement": "GI50", "setting": "[17]", "result": 1150, "unit": "nM"}, {"measurement": "GI50", "setting": "[18]", "result": 14, "unit": "nM"}, {"measurement": "GI50", "setting": "[19]", "result": 1290, "unit": "nM"}, {"measurement": "GI50", "setting": "[20]", "result": 832, "unit": "nM"}, {"measurement": "GI50", "setting": "[21]", "result": 11, "unit": "nM"}, {"measurement": "GI50", "setting": "[22]", "result": 550, "unit": "nM"}, {"measurement": "GI50", "setting": "[23]", "result": 1050, "unit": "nM"}, {"measurement": "GI50", "setting": "[24]", "result": 78, "unit": "nM"}, {"measurement": "GI50", "setting": "[25]", "result": 112, "unit": "nM"}, {"measurement": "GI50", "setting": "[26]", "result": 78, "unit": "nM"}, {"measurement": "GI50", "setting": "[27]", "result": 55, "unit": "nM"}, {"measurement": "GI50", "setting": "[28]", "result": 1480, "unit": "nM"}, {"measurement": "GI50", "setting": "[29]", "result": 3800, "unit": "nM"}, {"measurement": "GI50", "setting": "[30]; read-out: GI50 values, range over the panel", "result": "11 to 3800", "unit": "nM"}, {"measurement": "GI50", "setting": "[30]; read-out: Mean GI50 for all cell lines", "result": 660, "unit": "nM"}, {"measurement": "Anti-proliferative activity across the panel", "setting": "[30]; nine tumor types represented in the NCI-60 cell line panel", "result": "broad anti-proliferative activity"}]}
